Laboratory results: US20260138970A1, “MODULATORS OF THE CALCIUM SIGNALING CASCADE” (FONDAZIONE TELETHON ETS, priority 2022, published 2026)

Tests used:
TMEM16A = experiment: HS-YFP assay in FRT cells co-expressing TMEM16A and HS-YFP; assay type: cell-based; conditions: for potentiation of the effect of UTP on TMEM16A: primary screening and secondary tests, compounds 10 μM
Procedure: Experiments were performed using an automated microplate reader (FLUOstar Omega, BMG Labtech, Offenburg, Germany) equipped with syringe pumps and optical excitation/emission filters optimized for yellow fluorescent protein (YFP) fluorescence (ET500/20× and ET535/30m, respectively; Chroma Technology Corporation). FRT cells with co-expression of TMEM16A and HS-YFP were plated at high density in black wall/clear bottom 96-well microplates (3603, Corning). Each well in microplates was washed 3 times with 150 μl of phosphate-buffered saline (PBS). After washing, each well received 60 μl of PBS containing test compounds at 10 μM final concentration, or TMEM16A inhibitor Ani9 (15) (10 μM), or vehicle. After 20 min of incubation at 37° C., microplates were transferred to the plate reader for fluorescence assay. Each well was assayed individually for TMEM16A-mediated I^− influx by sampling cell fluorescence every 200 ms for 14 s. Two seconds after the start of reading, 165 μl of a modified PBS containing 137 mM KI, instead of NaCl, plus UTP 0.25 μM were automatically added by the reader. K^+ was used in the injected solution to prevent changes of membrane potential due to altered activity of Ca^2+-activated K^+ channels. The fluorescence trace in each well was corrected by background subtraction and then normalized for the initial value measured before I^− addition (F0). The cumulative fluorescence quenching (CFQ) in the time interval between 3 and 13.8 s (representing integration of TMEM16A-dependent I^− influx) was quantified using a procedure compiled in Microsoft Excel according to the formula
For the screening, FRT cells were plated at high density in 96-well microplates. After 48 h, TMEM16A activity was evaluated in a microplate reader by injection in each well of a saline solution containing I^− instead of Cl^− and a submaximal (0.25 μM) UTP concentration (FIG. 1A). Upon injection, UTP triggers Ca^2+ mobilization and TMEM16A activation. The resulting TMEM16A-dependent I^− influx causes HS-YFP quenching. The presence in the well of a small molecule that potentiates TMEM16A activity, in a direct or indirect way, is therefore expected to enhance the rate of HS-YFP quenching.

[1] = tested on: protease-activated receptors; experiment: Fluo-4 Ca2+ assay, SLIGR-NH2 stimulus, HEKR1 cells; assay type: cell-based; conditions: SLIGR-NH2 10 μM; compounds 10 μM; FIG. 5C top
Procedure: Experiments were performed using the microplate reader described for the HS-YFP assay. FRT and HEK293 cells were cultured until confluence in 96-well microplates (3603, Corning). Cells were washed 2 times with PBS (150 μl/wash) and then loaded for 1 h at 37° C. with 5 μM Fluo-4/AM (Thermo Fisher Scientific; catalog number: F23917) in PBS containing 10 mM glucose, 0.5 mM sulfinpyrazone, and 1% fetal bovine serum. After loading, cells were washed 2 times with PBS-glucose-sulfinpyrazone (150 μl/wash) and incubated for 20 min at 37° C. with 60 μl of PBS plus 10 mM glucose and 0.5 mM sulfinpyrazone containing compounds of interest at 10 μM final concentration or vehicle. Each well was assayed individually. Fluo-4 fluorescence (500 nm excitation, 535 nm emission) was detected every 200 ms for 16-40 s. Two seconds after the start of fluorescence recording, the reader automatically injected 165 μl of a modified PBS containing 136 mM KCl instead of NaCl. This solution also contained 10 mM glucose, 0.5 mM sulfinpyrazone, and UTP or SLIGR-NH2 (CAS #171436-38-7) at a final concentration that depended on the specific cell type. For UTP we used: 0.25 μM for FRT; 1 μM for HEKR2; 5 μM for HEK3XKO, HEKR1, and HEKR3. For SLIGR-NH2 we used: 10 μM for HEKR1; 4 μM for HEKR2. These concentrations were chosen to elicit ˜20% of maximal effect based on UTP and SLIGR-NH2 dose-response relationships. The lower agonist concentrations used for HEKR2 cells, compared to HEKR1 cells, are consistent with the higher affinity of ITPR2 for IP3 (16). The Fluo-4 fluorescence increase was quantified using a procedure compiled in Microsoft Excel after background subtraction and normalization for the initial value measured before UTP addition.

[2] = FRT cells expressing TMEM16A, UTP 0.25 μM, FIG. 1D

Row | Structure (SMILES) | concentrations at which effective / active, dose-response by HS-YFP assay (TMEM16A; [2]) | potentiation of the effect of UTP on TMEM16A (TMEM16A) | potentiation of SLIGR-NH2 stimulus (Ca2+ mobilization), HEKR1 cells [1] | shape of dose-response relationship, HS-YFP assay (TMEM16A; [2])
1 | OCc1ccccc1CN(Cc1ccnc(N2CCCC2)n1)c1ccc(F)cc1 [ARN4550, [2-[[4-Fluoro-N-[(2-pyrrolidin-1-ylpyrimidin-4-yl)methyl]anilino]methyl]phenyl]methanol] | 10 µM | significantly potentiated | effective as potentiators | –
2 | CCc1cc(-c2cc(NCCCOc3ccccc3C)nc(N)n2)n(C)n1 [ARN7149, 6-(3-Ethyl-1-methyl-1H-pyrazol-5-yl)-N^4-(3-(o-tolyloxy)propyl)pyrimidine-2,4-diamine] | 5 to 20 µM | significantly potentiated | significant inhibition | bell-shaped
3 | CCn1nc2c(c1C(=O)Nc1ccccc1OCC1CCCCO1)CCCC2 (stereo not shown) [ARN11391, 2-Ethyl-N-[2-(tetrahydropyran-2-ylmethoxy)phenyl]-4,5,6,7-tetrahydroindazole-3-carboxamide] | 10 µM | significantly potentiated | effective as potentiators | –
